Laboratory results as given in patent US20230356105A1, “TETRAAZADODECANE BASED CHELATING AGENTS FOR SEPARATION OF RARE EARTH ELEMENTS AND METHOD THEREFOR” (Ustav Organicke Chemie a Biochemie AV CR V.V.I., priority 2020, published 2023).

Test: Use of additives to improve separation of Nd/Dy mixture by precipitation with L5 (Example 18)
Format: physicochemical
Conditions: 11 mM L5
Protocol: Stock solutions were pipetted into plastic 1×1 cm cuvettes to prepare reaction mixtures with concentrations as follows: • 1. […] 5 mM NdCl3 • 3. 5 mM DyCl3 • 4. 500 mM MOPS pH=7 • 5. the additive of interest, in a variable concentration; if possible, stock solutions were prepared from Na^+ salt forms of the compound; if not, the stock solutions were titrated by NaOH/HCl to pH=7 prior to addition (see Table 12 for additives and concentrations)
These aqueous reaction mixtures, each prepared to a total volume of 2.0 mL with the addition of water as necessary, were mixed by the use of a PTFE-coated stir bar on a magnetic stirrer. The cuvettes were sealed with transparent tape to prevent evaporation overnight. The reaction mixtures were stirred for 18 hours, at which point 500 μL aliquots of each reaction mixture were transferred into plastic 2 mL Eppendorf tubes and centrifuged. The supernatants were carefully pipetted out and transferred to a new set of tubes. The precipitate was dissolved by addition of 500 μL 1M HCl. The absolute concentration of Nd and Dy in each supernatant and precipitate was determined by ICP-OES.

Precipitate concentration [mM] Dy (additive 5 mM) [mM]	Precipitate concentration [mM] Nd (additive 5 mM) [mM]	Supernatant concentration [mM] Dy (additive 5 mM) [mM]	Supernatant concentration [mM] Nd (additive 5 mM) [mM]	Precipitate concentration [mM] Dy (additive 10 mM) [mM]	Precipitate concentration [mM] Nd (additive 10 mM) [mM]	Supernatant concentration [mM] Dy (additive 10 mM) [mM]	Supernatant concentration [mM] Nd (additive 10 mM) [mM]	Precipitate concentration [mM] Dy (additive 20 mM) [mM]	Precipitate concentration [mM] Nd (additive 20 mM) [mM]	Supernatant concentration [mM] Dy (additive 20 mM) [mM]	Supernatant concentration [mM] Nd (additive 20 mM) [mM]	Precipitate concentration [mM] Dy (additive 15 mM) [mM]	Precipitate concentration [mM] Nd (additive 15 mM) [mM]	Supernatant concentration [mM] Dy (additive 15 mM) [mM]	Supernatant concentration [mM] Nd (additive 15 mM) [mM]	SMILES	Precipitate concentration [mM] Dy (additive 100 mM) [mM]	Precipitate concentration [mM] Nd (additive 100 mM) [mM]	Supernatant concentration [mM] Dy (additive 100 mM) [mM]	Supernatant concentration [mM] Nd (additive 100 mM) [mM]	further results
																Cl [chloride]	4.58	4.62	0.29	0.24	Precipitate concentration [mM] Dy (additive 200 mM): 4.48 mM; Precipitate concentration [mM] Nd (additive 200 mM): 4.57 mM; Supernatant concentration [mM] Dy (additive 200 mM): 0.22 mM; Supernatant concentration [mM] Nd (additive 200 mM): 0.12 mM; Precipitate concentration [mM] Dy (additive 500 mM): 4.29 mM; Precipitate concentration [mM] Nd (additive 500 mM): 4.39 mM; Supernatant concentration [mM] Dy (additive 500 mM): 0.24 mM; Supernatant concentration [mM] Nd (additive 500 mM): 0.11 mM; Precipitate concentration [mM] Dy (additive 1000 mM): 4.88 mM; Precipitate concentration [mM] Nd (additive 1000 mM): 4.97 mM; Supernatant concentration [mM] Dy (additive 1000 mM): 0.24 mM; Supernatant concentration [mM] Nd (additive 1000 mM): 0.11 mM
3.62	4.77	1.24	0.19	2.38	4.49	2.27	0.25	1.21	4.08	3.52	0.66					O=C(O)CC(O)(CC(=O)O)C(=O)O [citrate]					Precipitate concentration [mM] Dy (additive 1 mM): 4.03 mM; Precipitate concentration [mM] Nd (additive 1 mM): 4.30 mM; Supernatant concentration [mM] Dy (additive 1 mM): 0.38 mM; Supernatant concentration [mM] Nd (additive 1 mM): 0.14 mM
4.87	6.21	1.21	0.13	3.82	6.15	2.34	0.18					2.72	5.68	3.26	0.49	F [fluoride]					
																O=CO [formate]	3.84	4.85	1.09	0.42	Precipitate concentration [mM] Dy (additive 50 mM): 4.33 mM; Precipitate concentration [mM] Nd (additive 50 mM): 5.17 mM; Supernatant concentration [mM] Dy (additive 50 mM): 0.51 mM; Supernatant concentration [mM] Nd (additive 50 mM): 0.07 mM; Precipitate concentration [mM] Dy (additive 250 mM): 3.33 mM; Precipitate concentration [mM] Nd (additive 250 mM): 5.38 mM; Supernatant concentration [mM] Dy (additive 250 mM): 1.68 mM; Supernatant concentration [mM] Nd (additive 250 mM): 0.11 mM; Precipitate concentration [mM] Dy (additive 500 mM): 2.09 mM; Precipitate concentration [mM] Nd (additive 500 mM): 4.93 mM; Supernatant concentration [mM] Dy (additive 500 mM): 2.51 mM; Supernatant concentration [mM] Nd (additive 500 mM): 0.22 mM
																NCC(=O)O [glycine]	2.79	4.61	1.99	0.42	Precipitate concentration [mM] Dy (additive 50 mM): 3.60 mM; Precipitate concentration [mM] Nd (additive 50 mM): 4.90 mM; Supernatant concentration [mM] Dy (additive 50 mM): 1.01 mM; Supernatant concentration [mM] Nd (additive 50 mM): 0.09 mM; Precipitate concentration [mM] Dy (additive 150 mM): 2.44 mM; Precipitate concentration [mM] Nd (additive 150 mM): 4.91 mM; Supernatant concentration [mM] Dy (additive 150 mM): 2.25 mM; Supernatant concentration [mM] Nd (additive 150 mM): 0.11 mM; Precipitate concentration [mM] Dy (additive 200 mM): 1.86 mM; Precipitate concentration [mM] Nd (additive 200 mM): 4.69 mM; Supernatant concentration [mM] Dy (additive 200 mM): 2.85 mM; Supernatant concentration [mM] Nd (additive 200 mM): 0.28 mM
2.61	4.64	1.73	0.09	1.71	4.92	2.93	0.20	0.82	4.33	3.82	0.64	1.11	4.54	3.13	0.35	O=C(O)CO [glycolate]					
3.15	4.33	1.59	0.51	2.08	4.49	2.47	0.21	1.18	4.33	3.57	0.50	1.60	4.38	3.21	0.49	C[C@H](O)C(=O)O [l-lactate]					

SMILES	Precipitate concentration [mM] Dy (additive 5 mM) [mM]	Precipitate concentration [mM] Nd (additive 5 mM) [mM]	Supernatant concentration [mM] Dy (additive 5 mM) [mM]	Supernatant concentration [mM] Nd (additive 5 mM) [mM]	Precipitate concentration [mM] Dy (additive 10 mM) [mM]	Precipitate concentration [mM] Nd (additive 10 mM) [mM]	Supernatant concentration [mM] Dy (additive 10 mM) [mM]	Supernatant concentration [mM] Nd (additive 10 mM) [mM]	Precipitate concentration [mM] Dy (additive 20 mM) [mM]	Precipitate concentration [mM] Nd (additive 20 mM) [mM]	Supernatant concentration [mM] Dy (additive 20 mM) [mM]	Supernatant concentration [mM] Nd (additive 20 mM) [mM]	Precipitate concentration [mM] Dy (additive 15 mM) [mM]	Precipitate concentration [mM] Nd (additive 15 mM) [mM]	Supernatant concentration [mM] Dy (additive 15 mM) [mM]	Supernatant concentration [mM] Nd (additive 15 mM) [mM]	Precipitate concentration [mM] Dy (additive 100 mM) [mM]	Precipitate concentration [mM] Nd (additive 100 mM) [mM]	Supernatant concentration [mM] Dy (additive 100 mM) [mM]	Supernatant concentration [mM] Nd (additive 100 mM) [mM]	further results
O=C(O)c1cccc(C(=O)O)n1 [dipicolinic acid]									0.36	2.66	4.29	2.21									
